Results published in patent US5543422A, “Heterocyclic amines” (British Technology Group Limited, priority 1992, dated 1996).
Where a name gives a salt, the structure may show the parent alone. Read-outs that look alike come from different tables or passages of the source. One block for each compound: values may come before it.

Assays:
[1] = target: T1, calmodulin (Bos taurus, UniProt P62157); test: inhibition of calmodulin activation of cyclic nucleotide phosphodiesterase (PDE), hydrolysis of [3H] cAMP; assay type: biochemical, bovine
T1 construct: a sufficient amount of bovine brain calmodulin; from tissue; host or cells: bovine brain (calmodulin); bovine heart (PDE)

[2] = base strength (pka) of the terminal amine; assay type: physicochemical; conditions: Table 5, terminal amine
[3] = system: calmodulin-independent PDE; test: inhibition of calmodulin-independent activity of PDE; assay type: biochemical, bovine; conditions: various concentrations
Method: The assay was based on the incubation of calmodulin-deficient bovine heart PDE with [^3 H] cyclic adenosine monophosphate (cAMP), and a sufficient amount of bovine brain calmodulin (12.5 ng/100 μl) to give 70-80% activation of the enzyme. The resultant [^3 H] 5'-AMP formed was hydrolysed to [3H] adenosine upon incubation with the 5'-nucleotidase of the Western Diamondback Rattlesnake (Crotalus atrox). The nucleoside was then separated from the unreacted substrate using anion exchange resin. […] The degree of inhibition of calmodulin-activation of PDE in the presence of a range of drugs was expressed as a percentage of the activity of calmodulin-activated PDE in the absence of any drug. […] To give an indication of any inhibition of PDE by compounds, the activity of PDE in the presence of two concentrations of compound (approximately ten fold difference) were included in the assay. As there was no significant difference in the activity of PDE with or without the drug it was concluded that there was no inhibition of calmodulin-independent PDE by the drugs at the concentrations used. The percentage inhibition recorded for calmodulin-activated PDE was therefore due solely to the action of the drugs on the activity of calmodulin.

[4] = Table 4, heteroatoms in the side chain, mean ± S.E., read-out: IC50 in μM (x ± SE)
[5] = Table 7, effect of the aryl moiety, mean ± S.E. of three assays, * (drawing 9 6 pyrrolidine) mean of two, read-out: IC50 in μM (x ± SE)
[6] = Table 5, effect of base strength of the terminal amine, mean ± S.E., read-out: IC50 in μM (x ± S.E.)
[7] = Table 2, mean ± S.E. of three assays, * (α 3 CH2, β 2 CH2, β 3 CH2, α 3 0, β 2 0) mean of two, read-out: IC50 in μM (x ± SE)
[8] = Table 3, mean ± S.E. of three assays, * (β 6 piperdine) mean of two, read-out: IC50 in μM (x ± SE)
[9] = Table 1, mean ± S.E. of three assays, * (β CHCH 4 6) mean of two, read-out: IC50 in μM (x ± SE)

SMILES: c1ccc2c(OCCSCCN3CCCCC3)cccc2c1
IC50 [1, 4]: 41.7 ± 6.2 µM

SMILES: c1ccc2c(CCNCCCCCN3CCCCC3)cccc2c1
IC50 [1, 4]: 11.5 ± 1.6 µM

SMILES: NCCCCOc1cccc2ccccc12 [NH2]
pKa [2]: 10.6
IC50 [1, 6]: 3.85 ± 0.2 µM

SMILES: c1cc(OCCCCCCN2CCCC2)c2ccsc2c1 [drawing 8 6 pyrrolidine, N-6-(benzo[b]thien-4-yloxy)hexylpyrrolidine]
IC50 [1, 5]: 0.22 ± 0.04 µM

SMILES: c1cc(OCCCCCCN2CCCC2)c2occc2c1 [drawing 9 6 pyrrolidine]
IC50 [1, 5]: 204 ± 13.3 µM

SMILES: c1ccc2c(OCCCCn3ccnc3)cccc2c1 [imidazole]
pKa [2]: 7.33
IC50 [1, 6]: 68.3 ± 6.7 µM

SMILES: O=C(O)C(=O)O [oxalic acid]
effect on PDE [3]: none was found
effect on calmodulin-activated PDE ([1]; various concentrations): none was found

SMILES: c1ccc2c(OCCCCN3CCCC3)cccc2c1 [pyrrolidine, N-4-(naphth-1-yloxy)butylpyrrolidine]
pKa [2]: 10.3
IC50 [1, 6]: 4 ± 0.2 µM

SMILES: c1ccc2c(OCCN3CCOCC3)cccc2c1 [α 2 0]
IC50 [1, 7]: > 250 µM

SMILES: c1ccc2c(OCCN3CCCCC3)cccc2c1 [α 2 CH2]
IC50 [1, 7]: 152 ± 18.8 µM

SMILES: c1ccc2c(OCCCN3CCOCC3)cccc2c1 [α 3 0]
IC50 [1, 7]: 217 ± 24.7 µM

SMILES: c1ccc2c(OCCCN3CCCCC3)cccc2c1 [α 3 CH2]
IC50 [1, 7]: 106 ± 18 µM

SMILES: c1ccc2c(OCCCCN3CCOCC3)cccc2c1 [α 4 0]
pKa [2]: 7.41
IC50 [1, 7]: 53.2 ± 10.5 µM

SMILES: c1ccc2c(SCCCCN3CCCCC3)cccc2c1 [α 4 piperdine]
IC50 [1, 8]: 23.6 ± 1.6 µM

SMILES: c1ccc2c(OCCCCCN3CCOCC3)cccc2c1 [α 5 0]
IC50 [1, 7]: 42.3 ± 9.1 µM

SMILES: c1ccc2c(OCCCCCCCN3CCCCC3)cccc2c1 [α 7 CH2, N-7-(naphth-1-yloxy)heptylpiperidine hydrochloride]
IC50 [1, 7]: 4.7 ± 0.3 µM

SMILES: c1ccc2c(OCCCCCCCCN3CCCCC3)cccc2c1 [α 8 CH2]
IC50 [1, 7]: 5.3 ± 0.3 µM

SMILES: c1ccc2cc(OCCN3CCOCC3)ccc2c1 [β 2 0]
IC50 [1, 7]: > 250 µM

SMILES: c1ccc2cc(OCCCN3CCOCC3)ccc2c1 [β 3 0]
IC50 [1, 7]: > 250 µM

SMILES: c1ccc2cc(SCCCN3CCCCC3)ccc2c1 [β 3 piperdine]
IC50 [1, 8]: 77.7 ± 4.1 µM

SMILES: c1ccc2cc(OCCCCN3CCOCC3)ccc2c1 [β 4 0]
IC50 [1, 7]: 85.6 ± 7 µM

SMILES: c1ccc2cc(SCCCCN3CCCC3)ccc2c1 [β 4 pyrrolidine]
IC50 [1, 8]: 18 ± 1.3 µM

SMILES: c1ccc2cc(OCCCCCN3CCOCC3)ccc2c1 [β 5 0]
IC50 [1, 7]: 72.7 ± 9.4 µM

SMILES: c1ccc2cc(SCCCCCN3CCOCC3)ccc2c1 [β 5 morpholine]
IC50 [1, 8]: 20.1 ± 2.25 µM

SMILES: c1ccc2cc(SCCCCCCN3CCCCC3)ccc2c1 [β 6 piperdine]
IC50 [1, 8]: 12.5 ± 1.5 µM

SMILES: C(=Cc1ccc2ccccc2c1)CCCCN1CCCCC1 [β CHCH 4 6, N-6-(naphth-2-yl)hex-5-enylpiperidine oxalate]
IC50 [1, 9]: 2.2 ± 0.3 µM

Next, values leading:

IC50 ([1]; Table 6, halogen substitution on the naphthalene ring, mean ± S.E., read-out: IC50 in μM (x ± SE)): 9.3 ± 2 µM
SMILES: Brc1ccc2cc(OCCCCN3CCCCC3)ccc2c1

IC50 [1, 5]: 55.3 ± 10 µM
SMILES: Clc1ccc(OCCCCN2CCCCC2)cc1Cl

IC50 [1, 5]: 1.8 ± 0.6 µM
SMILES: c1cc(OCCCCN2CCCCC2)c2ccsc2c1 [drawing 8 4 piperdine, N-[4-(benzo[b]thien-4-yloxy)butyl]piperidine oxalate]

IC50 [1, 5]: 0.88 ± 0.14 µM
SMILES: c1cc(OCCCCN2CCCC2)c2ccsc2c1 [drawing 8 4 pyrrolidine, N-4-(benzo[b]thien-4-yloxy)butylpyrrolidine]

IC50 [1, 5]: 0.38 ± 0.1 µM
SMILES: c1cc(OCCCCCCN2CCCCC2)c2ccsc2c1 [drawing 8 6 piperdine, N-6-(benzo[b]thien-4-yloxy)hexylpiperidine]

IC50 [1, 5]: 70.1 ± 8.6 µM
SMILES: c1cc(OCCCCN2CCCCC2)c2occc2c1 [drawing 9 4 piperdine]

pKa [2]: 10.1
IC50 [1, 7]: 7.4 ± 0.5 µM
SMILES: c1ccc2c(OCCCCN3CCCCC3)cccc2c1 [α 4 CH2, -4-(naphth-1-yloxy)butylpiperidine oxalate]

IC50 [1, 9]: 39.1 ± 8.9 µM
SMILES: c1ccc2c(OCCCCCN3CCCCC3)cccc2c1 [α 5 CH2]

IC50 [1, 7]: 28.5 ± 2 µM
SMILES: c1ccc2c(OCCCCCCN3CCCCC3)cccc2c1 [α 6 CH2]

IC50 [1, 7]: > 250 µM
SMILES: c1ccc2cc(OCCN3CCCCC3)ccc2c1 [β 2 CH2]

IC50 [1, 7]: 29.2 ± 1.4 µM
SMILES: c1ccc2cc(OCCCN3CCCCC3)ccc2c1 [β 3 CH2]

IC50 [1, 7]: 55.8 ± 6 µM
SMILES: c1ccc2cc(OCCCCN3CCCCC3)ccc2c1 [β 4 CH2]

IC50 [1, 8]: 12.3 ± 2.6 µM
SMILES: c1ccc2cc(SCCCCN3CCCCC3)ccc2c1 [β 4 piperdine]

IC50 [1, 7]: 53.9 ± 1.6 µM
SMILES: c1ccc2cc(OCCCCCN3CCCCC3)ccc2c1 [β 5 CH2]

IC50 [1, 9]: 22.1 ± 3 µM
SMILES: c1ccc2cc(SCCCCCN3CCCCC3)ccc2c1 [β 5 piperdine]
